Assays:
[1] = system: IFNγ release from PBMCs; assay: IFNγ release from PBMCs measured by ELISA; type: cell-based; settings: 5 μM, human PBMCs
Description: (§1) Mononuclear cells are obtained from the blood of healthy volunteers via centrifugation and cultivated on tissue culture dishes with the test compound at various concentrations Schnyder, Bollinger et al. (1990). Inhibition of interleukin-1 release by IX 207-887. Agents Actions. 30: 350-362. Fresh human mononuclear cells were isolated on Ficoll-Paque gradient and washed several times. Fresh medium, test compound and LPS (10 μg/ml) or PHA (5 μg/ml) as stimulant are added and the monocytes incubated for a further day. The media are then removed and clarified by centrifugation at 1000×g for 10 min. Samples are stored at […] until the determinations can be made. IFNγ, IL 1β, IL 6, and IL-17 are determined using commercially available ELISA kits.

[2] = system: IL-17 release from PBMCs; assay: IL-17 release from PBMCs measured by ELISA; type: cell-based; settings: human PBMCs
Description: as §1

[3] = system: IL-12 p40 mRNA; assay: mRNA stability reporter gene (luciferase) assay, IL-12 p40; type: cell-based; settings: 10 μM, 24 h, n.a. = no activity
Description: (§2) The basic principle of a reporter gene assay for determining compounds that destabilize mRNA is described in detail in WO 00/39314. A number of these assays for various drug targets have been developed and were tested with the compounds described in this disclosure. For THP-1 cells, compound is added at the time of the addition of LPS and luciferase measurements are taken 24 hours later or as indicated. For other cell lines, cells were plated in 96 well plates at 5*10^5 cells per 100 ul per well and incubated over night at 37° C. Compounds were then added and luciferase activity was measured after 24 hours. The activity was compared to other mRNA stability assays established for a range of other drug targets and found to be specific for IL-6, IL-12p40 and IL-23p19. Luciferase activity in the IL-6, IL-12 and IL-23 assays was inhibited by 10 μM benzopyran derivatives by >40% (Table IV).

[4] = system: IFN-gamma; assay: LPS-induced cytokine release in mice, serum IFN-gamma; type: in vivo; settings: 100 mg/kg pre-treatment; serum 4 h post LPS; CD-1 mouse
Description: (§3) Compounds were evaluated on intra-peritoneal LPS-induced cytokine release measured in serum in the CD-1 mouse. Vehicle, Test item and positive control were administered 1 h before LPS injection as well 30 min post LPS injection (except as otherwise varied herein). In serum samples collected at 4 h post LPS injection, following cytokines were measured by multiplex on MSD 10 V-plex platform: TNF-alpha, IFN-gamma, IL-1beta, IL-2, IL-4, IL-5, IL-6, IL-10, IL-12, KC/GRO. All cytokines except IL-5 were induced by LPS injection (compared with saline injection).
(§4) Serum samples collected at 4h post LPS challenge were analyzed in duplicate wells using multiplex on MSD 10 V-plex platform. […] FIG. 1: Effect of test compounds 333 (TI1) and 1781 (TI2) on IFN-gamma levels in serum of LPS treated mice. FIG. 2: Effect of test compounds 333 (TI1) and 1781 (TI2) on IFN-gamma levels in serum of LPS treated mice (values of individual animals)

[5] = system: IL-1β release from PBMCs; assay: IL-1β release from PBMCs measured by ELISA; type: cell-based; settings: LPS or PHA stimulated human PBMCs
Description: as §1

[6] = system: IL-1β release from THP 1 cells; assay: IL-1β release from THP 1 cells measured by ELISA; type: cell-based, human; settings: IFNγ/LPS-stimulated THP 1 cells
Description: (§5) The THP 1 cell line is generally available and is described by Tsuchia et. al. Tsuchiya, Yamabe et al. (1980). Establishment and characterization of a human acute monocytic leukemia cell line (THP-1). Int J Cancer. 26: 171-176.
(§6) 900 μl THP 1 cells (0.5×10^6 cells) together with 100 Uγ interferon/0.9 ml RPMI 1640 medium (containing 2 mM L glutamine and 5% heat inactivated fetal calf serum) are pipetted into 24-well culture plates. 100 μl of the compound to be tested are then added. After 3 hours at 37° C. in 5% CO2/95% air, 10 μl lipopolysaccharide (LPS) 500 μg/ml is added and the incubation continued for a further 24 hours. Appropriate controls (with and without stimulus, solvent) are also included. The media are then removed and clarified by centrifugation at 1000 g for 10 min. Samples are stored at […] until the determinations can be made. IL 1β, IL 6 IL-12, and IL-23 assays are determined using commercially available ELISA kits. In these tests, the compounds of the disclosure may inhibit IL-1β, IL-6, IL-12 and IL-23 release at a concentration of about 10 to 50 μM. The compounds are non-toxic based on resazurin measurements as described in Didiot, Hewett et al. (2013). Identification of cardiac glycoside molecules as inhibitors of c-Myc IRES-mediated translation. J Biomol Screen. 18: 407-419.

[7] = system: IL-23 p19 mRNA; assay: mRNA stability reporter gene (luciferase) assay, IL-23 p19; type: cell-based; settings: 10 μM, 24 h, n.a. = no activity
Description: as §2

[8] = system: TNF-alpha; assay: LPS-induced cytokine release in mice, serum TNF-alpha; type: in vivo; settings: 100 mg/kg pre-treatment; serum 4 h post LPS; CD-1 mouse
Description: as §3, §4

[9] = system: IL-4; assay: LPS-induced cytokine release in mice, serum IL-4; type: in vivo; settings: 100 mg/kg pre-treatment; serum 4 h post LPS; CD-1 mouse
Description: as §3, §4

[10] = system: IL-6 release from THP 1 cells; assay: IL-6 release from THP 1 cells measured by ELISA; type: cell-based, human; settings: IFNγ/LPS-stimulated THP 1 cells, 24 h
Description: as §5, §6

[11] = system: IL-6 release from PBMCs; assay: IL-6 release from PBMCs measured by ELISA; type: cell-based; settings: LPS or PHA stimulated human PBMCs
Description: as §1

[12] = system: IL-12; assay: LPS-induced cytokine release in mice, serum IL-12; type: in vivo; settings: 100 mg/kg pre-treatment; serum 4 h post LPS; CD-1 mouse
Description: as §3, §4

[13] = system: IL-6 mRNA; assay: mRNA stability reporter gene (luciferase) assay, IL-6; type: cell-based; settings: 24 h; for IC50: luciferase reporter
Description: as §2

[14] = system: IL-23 release from THP 1 cells; assay: IL-23 release from THP 1 cells measured by ELISA; type: cell-based, human; settings: IFNγ/LPS-stimulated THP 1 cells
Description: as §5, §6

[15] = system: IL-6 mRNA; assay: IL-6 mRNA levels in IFN-γ/LPS-stimulated THP-1 cells (RT-PCR); type: cell-based, human; settings: γIFN/LPS, 24h, compounds 10 μM, RT-PCR vs β-actin
Description: Total RNA was isolated at t=24 h from IFN-γ/LPS-stimulated THP-1 cells exposed to compounds (10 μM) or DMSO (solvent control) for 24 […], using the RNeasy Midi Kit (Qiagen), according to the manufacturer's instructions, and eluted in DEPC-treated Milli-Q H2O. Quantity and purity of RNA were determined by absorbance at 260 and 280 nm.
For RT-PCR analysis, 1 μg of total RNA was reverse transcribed using AMV reverse transcriptase (Life Sciences Inc., St. Petersburg, Fla.), then amplified by the PCR method. Each PCR reaction also contained a set of β-actin primers as internal control. The levels of the expected PCR product were compared to the constant levels of β-actin. The size of the PCR products was compared to MspI digested pBR322 standards (New England Biolabs). PCR products were analyzed on a 4% agarose gel.
Nucleotide sequences for the oligonucleotide 5′ and 3′ primers, respectively, were: […]

[16] = system: SNCA mRNA; assay: mRNA stability reporter gene (luciferase) assay, SNCA; type: cell-based; settings: 10 μM, 24 h, n.a. = no activity
Description: as §2

[17] = system: DNMT1 mRNA; assay: mRNA stability reporter gene (luciferase) assay, DNMT1; type: cell-based; settings: 10 μM, 24 h, n.a. = no activity
Description: as §2

[18] = system: Htt mRNA; assay: mRNA stability reporter gene (luciferase) assay, Htt; type: cell-based; settings: 10 μM, 24 h, n.a. = no activity
Description: as §2

[19] = system: APP mRNA; assay: mRNA stability reporter gene (luciferase) assay, APP; type: cell-based; settings: 10 μM, 24 h, n.a. = no activity
Description: as §2

SMILES	IFNγ release from PBMCs, % control (24 h) [1]	IL-17 release from PBMCs, % control (48 h) ([2]; 2.5 μM)	IL-17 release from PBMCs, % control (48 h) ([2]; 5 μM)	IL-17 release from PBMCs, % control (48 h) ([2]; 10 μM)	IL-12 p40 mRNA stability assay (% inhibition) [3]	IL-1β release from PBMCs (% control) ([5]; 2.5 μM)	IL-1β release from PBMCs (% control) ([5]; 5 μM)	IL-1β release from PBMCs (% control) ([5]; 10 μM)	IL-1β release from PBMCs (% control) ([5]; 20 μM)	IL-1β release from THP 1 cells, % control at 10 μM [6]	IL-23 p19 mRNA stability assay (% inhibition) [7]	IL-6 release from THP 1 cells, % control ([10]; 10 μM)	IL-6 release from THP 1 cells, % control ([10]; 40 μM)	IL-6 release from THP 1 cells, % control ([10]; 100 μM)	IL-6 release from PBMCs (% control) ([11]; 2.5 μM)	IL-6 release from PBMCs (% control) ([11]; 5 μM)	IL-6 release from PBMCs (% control) ([11]; 10 μM)	IL-6 release from PBMCs (% control) ([11]; 20 μM)	IL-23 release from THP 1 cells, % control at 10 μM [14]	IL-6 mRNA analysis, % ctrl [15]	further results
CC(=O)Oc1ccc2c(=O)c(Oc3ccc(C(=O)O)cc3)coc2c1 [Compound 276]	100 % control	79 % control	46 % control	57 % control																	
COC(=O)c1ccc(Oc2coc3cc(O)ccc3c2=O)cc1 [Compound 333, methyl 4-[(7-hydroxy-4-oxo-4H-chromen-3-yl)oxy]benzoate]	43 % control	93 % control	80 % control	41 % control	72 % inhibition	105 % control	91 % control	58 % control	45 % control	49 % control	76 % inhibition	48 % control	43 % control	35 % control	121 % control	158 % control	176 % control	68 % control	68 % control	94 % ctrl	Effect on LPS-induced increase in serum IFN-gamma level [4]: significantly blocked; Effect on serum TNF-alpha [8]: trend of effect; Effect on serum IL-4 [9]: trend of effect; Effect on serum IL-12 [12]: trend of effect; IC50 [13]: 2510 nM
COc1ccc(Oc2coc3cc(O)ccc3c2=O)cc1 [Compound 1781]	75 % control				62 % inhibition	136 % control	137 % control	104 % control	104 % control	100 % control	41 % inhibition	74 % control	64 % control	55 % control	115 % control	127 % control	83 % control	57 % control	100 % control	92 % ctrl	Effect on LPS-induced increase in serum IFN-gamma level [4]: significantly blocked; Effect on serum TNF-alpha [8]: trend of effect; Effect on serum IL-4 [9]: trend of effect; Effect on serum IL-12 [12]: trend of effect; IL-6 mRNA stability assay (% inhibition) ([13]; 10 μM, luciferase, n.a. = no activity): 84 % inhibition
CC(=O)Oc1ccc2c(=O)c(Oc3ccccc3)coc2c1 [Compound 1782]						123 % control	115 % control	109 % control	89 % control	100 % control		56 % control	57 % control	28 % control	106 % control	139 % control	89 % control	61 % control	93 % control	93 % ctrl	
COc1cc(O)c2c(c1OC)/C=C/C[C@H](O)[C@H](O)C(=O)/C=C\C[C@H](C)OC2=O [RAA, radicicol analog A, reference compound]					64 % inhibition	4 % control	4 % control	4 % control	4 % control		94 % inhibition	3 % control	2 % control	3 % control	10 % control	9 % control	11 % control	11 % control			SNCA mRNA stability assay (% inhibition) [16]: 25 % inhibition; DNMT1 mRNA stability assay (% inhibition) [17]: 19 % inhibition; IC50 ([13]; unit printed truncated): 128 nM; Htt mRNA stability assay (% inhibition) [18]: 35 % inhibition; APP mRNA stability assay (% inhibition) [19]: 5 % inhibition

From US11576892B2, “Benzopyran derivatives and uses thereof” (Novation Pharmaceuticals Inc., priority 2015, dated 2023)
